Test results as given in PubChem BioAssay (NCI).
Several values for one entry are separate records, joined by “and”; a condition that tells them apart may be missing. Equal values may be shown once.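 All cell lines were grown in 96-well plates and treated with compound for 48 hours. At the GI50, growth is halved. The concentration for full growth arrest is given as TGI.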

How the values were obtained:
Experiment in all cases: NCI-60 cell line screen, 48 h
RPMI-8226 leukemia = system: RPMI-8226 leukemia
COLO 205 colon = system: COLO 205 colon
SF-268 CNS = system: SF-268 CNS
SF-295 CNS = system: SF-295 CNS
HOP-62 NSCLC = system: HOP-62 NSCLC
KM12 colon = system: KM12 colon
NCI-H23 lung = system: NCI-H23 lung
SNB-19 CNS = system: SNB-19 CNS
CAKI-1 renal = system: CAKI-1 renal

Compound	TGI (RPMI-8226 leukemia)	TGI (COLO 205 colon) [µM]	TGI (SF-268 CNS) [µM]	TGI (SF-295 CNS) [µM]	TGI (HOP-62 NSCLC) [µM]	TGI (KM12 colon) [µM]	TGI (NCI-H23 lung)	TGI (SNB-19 CNS) [µM]	TGI (CAKI-1 renal) [µM]	GI50 (COLO 205 colon)	GI50 (SF-268 CNS)	GI50 (HOP-62 NSCLC)	GI50 (NCI-H23 lung)	GI50 (SNB-19 CNS)	GI50 (SF-295 CNS) [µM]	GI50 (KM12 colon) [µM]	GI50 (CAKI-1 renal) [µM]	GI50 (RPMI-8226 leukemia) [µM]
Cc1cccc(-c2nc3c(C(=O)NCCN(C)C)cccc3[nH]2)c1	9.49 µM	1.56	5.28	3.9	3.46	4	2.26 µM	7.68	10.3	–	–	–	–	–	–	–	–	–
CC(=O)CCCCCCCCCCCC[C@@H]1CC[C@H](C)[C@H](O)N1	> 100 µM	> 100	> 100	> 100	> 100	> 100	> 100 µM	> 100	> 100	–	–	–	–	–	–	–	–	–
CCCCCCCCCCCCCCCCCC(=O)OCC(CN(C)CCN(C)C)OC(=O)CCCCCCCCCCCCCCCCC (centres undefined)	> 100 µM	> 100	> 100	> 100	> 100	> 100	> 100 µM	> 100	> 100	–	–	–	–	–	–	–	–	–
Cc1cccc(C(C)(C)C)c1NC(=O)C(=O)C(C(=O)/C=C\c1ccccc1)C1OC(=O)c2ccccc21 (centres undefined)	> 100 µM	> 100	> 100	> 100	> 100	> 100	> 100 µM	> 100	> 100	–	–	–	–	–	–	–	–	–
O=C1C(Cl)C(c2cccc(O)c2)N1n1cnc2ccccc2c1=O (centres undefined)	> 100 µM	> 100	> 100	> 100	> 100	–	> 100 µM	> 100	> 100	–	–	–	–	–	–	–	–	–
CSc1nc(NC2OCC(OC(C)=O)C(OC(C)=O)C2OC(C)=O)c2c(OC(C)=O)c(C)c(=O)oc2n1 (centres undefined)	> 100 µM	> 100	–	> 100	> 100	> 100	> 100 µM	> 100	> 100	–	–	–	–	–	–	–	–	–
O=C1C(Cl)=C(Cl)C(=O)N1C1C2CC3CC(C2)CC1C3 (centres undefined)	> 80.5 µM	> 100	> 100	> 100	> 100	–	> 100 µM	> 100	> 66.9	–	–	–	–	–	–	–	–	–
CCCCCCCCCCC/C(=N/O)c1ccc(O)c2ncccc12	–	> 100	> 100	6.78	17.5	> 100	57.4 µM	> 100	51.6	–	–	–	–	–	–	–	–	–
Clc1ccc(Cl)c2[s+]snc12	> 77.6 µM	> 60.1	> 100	> 100	> 100	> 100	> 100 µM	> 100	> 100	–	–	–	–	–	–	–	–	–
CC(C)NCCNC(=O)c1ccccc1Nc1c(Cl)cccc1Cl	16.2 µM	24.9	34.1	28.5	25.4	36	32 µM	30	–	–	–	–	–	–	–	–	–	–
CC1OC(n2ncc(=O)[nH]c2=O)C=CC1=O (centres undefined)	99.3 µM and 62 µM	> 100	> 100	> 100	> 100	> 100	> 100 µM and 37.3 µM	> 100	> 100	> 100 µM and 36.9 µM	> 100 µM and 36.6 µM	> 100 µM and 42.1 µM	34.7 µM and 16.5 µM	> 100 µM and 35.1 µM	–	–	–	–
[Cl][Bi]([O]c1ccccn1)[O]c1ccccn1	–	> 100	> 100	> 100	–	> 100	> 100 µM	> 100	> 100	> 100 µM	> 100 µM	–	> 100 µM	> 100 µM	> 100	> 100	> 100	–
Cc1ccc(C(CN(C)C)C(=O)c2ccccc2)cc1 (centres undefined)	4.28 µM	4.91	13	18.2	27.5	14.7	26.7 µM	24.3	7.97	2.2 µM	3.13 µM	12.2 µM	10.5 µM	10.4 µM	5.09	4	2.64	1.12
CC(O)/C=C/C(CCC(C)CO)C(C)C (centres undefined)	> 100 µM	> 100	> 100	> 100	> 100	> 100	> 100 µM	> 100	> 100	–	–	–	–	–	–	–	–	–
Cc1ccc(NC(=O)CC2C(=O)Nc3ccccc3S2=O)cc1C (centres undefined)	> 100 µM	–	> 100	> 100	–	–	> 100 µM	> 100	> 100	–	–	–	–	–	–	–	–	–
N#CC(C(=O)/C(=N/N)C(C#N)c1ccc(Cl)cc1)c1ccc(Cl)cc1 (centres undefined)	> 100 µM	> 100	> 100	> 100	> 100	> 100	> 100 µM	> 100	–	–	–	–	–	–	–	–	–	–
